Data on 5 molecules can be found in BindingDB's records for patent US20240067645 (Lg Chem, 2024).

pIC50: −log10 of the molar value. Bounds are passed on as bounds.

As usually defined, the pIC50 is −log10 of the IC50, conventionally taken in molar units. Low values mean a high IC50, high ones a low IC50.

Sequence of Diacylglycerol kinase alpha (P23743 whole entry): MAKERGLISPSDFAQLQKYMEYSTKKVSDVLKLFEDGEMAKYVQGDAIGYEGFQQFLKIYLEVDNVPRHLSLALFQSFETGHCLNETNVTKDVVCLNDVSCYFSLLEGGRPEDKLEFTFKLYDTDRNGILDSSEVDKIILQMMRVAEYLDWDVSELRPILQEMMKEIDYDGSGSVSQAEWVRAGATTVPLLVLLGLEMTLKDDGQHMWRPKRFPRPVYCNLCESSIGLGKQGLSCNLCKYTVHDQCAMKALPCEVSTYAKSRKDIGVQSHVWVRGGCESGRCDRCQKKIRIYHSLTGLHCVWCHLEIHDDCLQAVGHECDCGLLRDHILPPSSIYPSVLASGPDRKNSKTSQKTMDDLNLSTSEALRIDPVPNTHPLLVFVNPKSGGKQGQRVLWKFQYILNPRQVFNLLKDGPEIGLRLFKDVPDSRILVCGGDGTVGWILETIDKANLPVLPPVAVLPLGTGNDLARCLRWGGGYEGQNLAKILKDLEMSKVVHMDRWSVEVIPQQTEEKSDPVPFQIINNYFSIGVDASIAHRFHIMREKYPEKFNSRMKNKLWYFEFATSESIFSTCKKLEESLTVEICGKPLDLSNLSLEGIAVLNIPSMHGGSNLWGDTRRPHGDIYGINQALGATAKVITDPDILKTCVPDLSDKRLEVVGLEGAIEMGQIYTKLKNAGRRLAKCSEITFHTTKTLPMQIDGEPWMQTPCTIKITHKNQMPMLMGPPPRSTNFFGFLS

For the experiment, the target named is Diacylglycerol kinase alpha (Homo sapiens, UniProt P23743). Kind of experiment: Inhibitory Effect Against DGKalpha Enzyme. Here is the method:
First, 3×OAG (3 mM)/ATP (0.45 mM) substrate solution was prepared from 1× substrate assay buffer (40 mM MOPS (pH 7.2), 20 mM MgCl2, 1 mM DTT, 0.4 mM CaCl2), 3 mM sodium deoxycholate, 100 mM NaCl, 0.1 mg/mL BSA, 0.12% NP-40), and vortexed thoroughly for 3 minutes to induce detergent-lipid micelle formation. Then, 3×DGKα (7.5 nM) enzyme solution was prepared from 2× enzyme assay buffer (80 mM MOPS (pH 7.2), 2 mM DTT, 200 mM NaCl, 0.2 mg/mL BSA) and vortexed for a short time. After preparing the above two solutions, a half-area opaque 96-well assay plate was prepared, and 10 μL of 3× diluted compound solution (30 μM to 0 μM) was transferred to each well. Next, 10 μL of 3×DGK enzyme solution was transferred to the same plate, mixed by pipetting, and then 10 μL of 3×OAG/ATP substrate solution was added to the assay plate and mixed well. The plate was incubated at room temperature for 20 minutes for the enzyme reaction. Next, 15 μL of ADP-Glo reagent was added to each well and mixed by pipetting, followed by incubating the plate at room temperature for 40 minutes to deplete the remaining ATPs. After this step, 30 μL of kinase detection reagent was added and mixed, and the plate was incubated at room temperature for an additional 20 minutes and luminescence was measured by Envision to calculate the IC50 value of each compound.
`Cn1c(=O)c(=O)n(C2CCN(Cc3ccc(OC(F)(F)F)c(Cl)c3)CC2)c2ncc(Cl)cc21` [US20240067645, Example 43] gave a pIC50 of more than 6.52. The same measure for `Cn1c(=O)c(=O)n(C2CCN(Cc3ccc(F)c(Cl)c3)CC2)c2ncc(Cl)cc21` [US20240067645, Example 42]: more than 6.52; for `Cn1c(=O)c(=O)n(C2CCN(Cc3cccc4c(Cl)cccc34)CC2)c2ncc(Cl)cc21` [US20240067645, Example 35]: more than 6.52; for `Cn1c(=O)c(=O)n(C2CCN(Cc3ccc(OC(F)(F)F)cc3)CC2)c2ncc(Br)cc21` [US20240067645, Example 34]: more than 6.52.

Take `Cn1c(=O)c(=O)n(C2CCN(Cc3cccc(Cl)c3)CC2)c2ncc(Cl)cc21` [US20240067645, Example 27]: the negative logarithm of the IC50 (pIC50) is more than 6.52.
